The values that follow are results of earlier work, collected in patent US11529357B2, “Injectable carbamazepine composition essentially free of 10-bromo-carbamazepine” (H. Lundbeck A/S, priority 2019, dated 2022).

On to `NC(=O)N1c2ccccc2C=Cc2ccccc21` [carbamazepine, 5H-dibenzo[b,f]azepine-5-carboxamide], for which the average oral bioavailability was 65-70%.
